Source: patent US12310973B2, “Administration and dosage of diaminophenothiazines” (WisTa Laboratories Ltd., priority 2016, dated 2025)
Where “and” joins values, the source holds several entries; their conditions need not be identical. Equal entries are not always repeated.

What was measured:
[1] = test system: mild to moderate AD patients; assay: Phase 3 trial in mild to moderate AD: ADAS-cog change from baseline; format: in vivo, human
Text: (§1) The co-primary efficacy outcomes were change from baseline in 11-item Alzheimer's Disease Assessment Scale—cognitive subscale (ADAS-cog) and the 23-item Alzheimer's Disease Cooperative Study Activities of Daily Living (ADCS-ADL). Magnetic resonance imaging (MRI) volumetry was chosen as the principal secondary outcome to support a potential effect on the rate of brain atrophy (Fox et al., 1997; Ridha et al., 2008). Change in Lateral Ventricular Volume (LVV), as measured by the Ventricular Boundary Shift Integral (VBSI), (Salloway et al., 2014) was chosen as the principal measure as it provides high-contrast boundaries for measurement and is less affected by motion artefacts than whole brain or smaller structures. Key supportive topographical measures (temporo-parietal (TPV) and hippocampal volume (HV)) are also reported.
(§2) Patients were recruited at 115 sites across 16 countries between January 2013 and August 2014. Enrolment of approximately 833 patients was targeted, with 891 patients actually recruited, in order to obtain data on approximately 500 patients completing the study, assuming a 30-40% drop-out rate. […] Adult caregiver(s) were required to participate. Concomitant use of AChEIs and/or memantine was permitted, provided the patient had been taking the medication(s) for […], with no changes to the dosage for 26 weeks prior to screening. Concomitant use of serotonergic antidepressant medication was permitted, but patients were monitored closely using a targeted rating scale derived from 4 published diagnostic criteria (Alusik et al., 2014) due to a theoretical potential for serotonin syndrome (Ramsay et al., 2007). […] Because MT^+ in high doses can induce methaemoglobinaemia, subjects with glucose-6-phosphate dehydrogenase deficiency or who were otherwise at haematological risk were excluded. Other inclusion/exclusion criteria are provided in the Supplementary Materials.
(§3) Patients were randomised at baseline to LMTM 75 mg b.i.d. or 125 mg b.i.d. (expressed as MT base equivalent) or control in a 3:3:4 ratio. The randomisation was stratified according to geographical region (3 levels: North America, Europe, rest of world), use of AD-labelled co-medications (2 levels, using or not using) and severity (2 levels, moderate MMSE 14-19 inclusive, mild MMSE 20-26 inclusive). Patients in the control arm received a dose of 4 mg b.i.d. to maintain blinding.
(§4) ADAS-cog and ADCS-ADL assessments were performed at baseline and every 13 weeks thereafter, with change at 65 weeks (the final on-treatment visit) the primary efficacy measures. These were repeated at the final off-treatment follow-up visit at Week 69. Secondary efficacy measures included Clinical Global Impression of Change (ADCS-CGIC, administered by an independent rater); MMSE, administered on screening and at Weeks 26, 52, 65 and 69. Brain MRI scans were performed at baseline/screening and every 13 weeks using a standardized protocol including volumetric 3D T1-weighted data consistent with ADNI recommendations, FLAIR, T2* Gradient Echo and T2-weighted sequences. Diffusion-Weighted Imaging was also available at screening in order to exclude patients with co-existing pathology that would lead to a diagnosis other than probable AD. Each site was first qualified ensuring standardised acquisition protocol, patient handling and data management. MRI data were centrally collected by Imaging Corelab (Bioclinica). Data were centrally reviewed by RadMD for eligibility and safety (Amyloid Related Imaging Abnormalities, or ARIA monitoring) on an on-going basis. Volumetric 3DT1 data were also reviewed centrally in order to measure (using a boundary shift integral (BSI) technique; Salloway et al., 2014) change in LVV as principal secondary outcome measure, and as exploratory endpoints temporo-parietal volume (TPV), whole brain volume (WBV) and hippocampal volume (HV, estimated as the mean of left and right) (Wischik et al., 2016). […]

[2] = test system: mild to moderate AD patients; assay: Phase 3 trial in mild to moderate AD: ADCS-ADL change from baseline; format: in vivo, human
Text: as §1, §2, §3, §4

[3] = 75 mg b.i.d. monotherapy, 65 weeks
[4] = 125 mg b.i.d. monotherapy, 65 weeks
[5] = Table 2 primary analysis, 65 weeks, covariates additive, control arm (LMTM 4 mg b.i.d.)
[6] = Table 2 primary analysis, 65 weeks, 75 mg b.i.d.
[7] = Table 2 primary analysis, 65 weeks, 125 mg b.i.d.
[8] = Table 2 primary analysis, 65 weeks, patients not using AChEI/Mem (additive covariate)
[9] = Table 3, AChEI/Mem as interaction term, 65 weeks, 75 mg b.i.d. + AChEI/Mem
[10] = Table 3, AChEI/Mem as interaction term, 65 weeks, 75 mg b.i.d. monotherapy
[11] = Table 3, AChEI/Mem as interaction term, 65 weeks, 125 mg b.i.d. + AChEI/Mem
[12] = Table 3, AChEI/Mem as interaction term, 65 weeks, 125 mg b.i.d. monotherapy
[13] = Table 3, AChEI/Mem as interaction term, 65 weeks, control arm (4 mg b.i.d.)
[14] = Table 4 post-hoc, control-arm subjects, 4 mg b.i.d. + AChEI/Mem
[15] = Table 4 post-hoc, control-arm subjects, 4 mg b.i.d. monotherapy vs 4 mg b.i.d. + AChEI/Mem
[16] = Table 7, mild AD, 4 mg b.i.d. + AChEI/Mem (control-arm subjects)
[17] = Table 7, mild AD, 4 mg b.i.d. alone vs 4 mg b.i.d. + AChEI/Mem
[18] = Table 7, mild AD, 75 mg b.i.d. alone vs control arm as randomised
[19] = Table 7, mild AD, 125 mg b.i.d. alone vs control arm as randomised
[20] = Table 7, mild AD, control arm as randomised (4 mg b.i.d.)
[21] = Table 7, moderate AD, 4 mg b.i.d. + AChEI/Mem (control-arm subjects)
[22] = Table 7, moderate AD, 4 mg b.i.d. alone vs 4 mg b.i.d. + AChEI/Mem
[23] = Table 7, moderate AD, 75 mg b.i.d. alone vs control arm as randomised
[24] = Table 7, moderate AD, 125 mg b.i.d. alone vs control arm as randomised
[25] = Table 7, moderate AD, control arm as randomised (4 mg b.i.d.)
[26] = control arm (LMTM 4 mg b.i.d.), 12 months
[27] = mild patients, LMTM monotherapy

CN(C)c1ccc2c(c1)Sc1cc(N(C)C)ccc1N2 [LMTM, leuco-methythioninium bis(hydromethanesulfonate)]
ADAS-cog treatment effect as % of the decline over 65 weeks seen in the control arm (mean±SE) [1, 3]: 103%±23% | ADAS-cog treatment effect as % of the decline over 65 weeks seen in the control arm (mean±SE) [1, 4]: 83%±23% | ADAS-cog, Estimate (change from baseline) [1, 5]: 6.32 ADAS-cog units | ADAS-cog, Estimate (difference with respect to control) [1, 6]: −0.02 ADAS-cog units | ADAS-cog, Estimate (difference with respect to control) [1, 7]: −0.43 ADAS-cog units | ADAS-cog, Estimate (mean additive treatment benefit) [1, 8]: −2.30 ADAS-cog units | ADAS-cog, Estimate (difference vs control) [1, 9]: 1.02 ADAS-cog units | ADAS-cog, Estimate (difference vs control) [1, 10]: −6.25 ADAS-cog units | ADAS-cog, Estimate (difference vs control) [1, 11]: 0.50 ADAS-cog units | ADAS-cog, Estimate (difference vs control) [1, 12]: −5.79 ADAS-cog units | ADAS-cog, Estimate (change from baseline) [1, 13]: 5.98 ADAS-cog units | ADAS-cog, Estimate (change from baseline) [1, 14]: 6.79 ADAS-cog units | ADAS-cog, Estimate (difference) [1, 15]: −5.90 ADAS-cog units | ADAS-cog, Estimate (change from baseline) [1, 16]: 3.24 ADAS-cog units | ADAS-cog, Estimate (difference) [1, 17]: −6.41 ADAS-cog units | ADAS-cog, Estimate (difference) [1, 18]: −8.89 ADAS-cog units | ADAS-cog, Estimate (difference) [1, 19]: −5.03 ADAS-cog units | ADAS-cog, Estimate (change from baseline) [1, 20]: 2.27 ADAS-cog units | ADAS-cog, Estimate (change from baseline) [1, 21]: 8.49 ADAS-cog units | ADAS-cog, Estimate (difference) [1, 22]: −4.74 ADAS-cog units | ADAS-cog, Estimate (difference) [1, 23]: −2.01 ADAS-cog units | ADAS-cog, Estimate (difference) [1, 24]: −5.75 ADAS-cog units | ADAS-cog, Estimate (change from baseline) [1, 25]: 7.89 ADAS-cog units | ADAS-cog decline at 12 months (mean±se) [1, 26]: 3.85±0.47 | Mean treatment benefit relative to control on ADAS-cog [1, 27]: 240%±41% | ADCS-ADL effect size as % of the decline over 65 weeks seen in the control arm [2, 3]: 82%±23% | ADCS-ADL effect size as % of the decline over 65 weeks seen in the control arm [2, 4]: 88%±23% | ADCS-ADL, Estimate (change from baseline) [2, 5]: −8.22 ADCS-ADL units | ADCS-ADL, Estimate (difference with respect to control) [2, 6]: −0.93 ADCS-ADL units | ADCS-ADL, Estimate (difference with respect to control) [2, 7]: −0.34 ADCS-ADL units | ADCS-ADL, Estimate (mean additive treatment benefit) [2, 8]: 2.00 ADCS-ADL units | ADCS-ADL, Estimate (difference vs control) [2, 9]: −2.16 ADCS-ADL units | ADCS-ADL, Estimate (difference vs control) [2, 10]: 6.48 ADCS-ADL units | ADCS-ADL, Estimate (difference vs control) [2, 11]: −1.62 ADCS-ADL units | ADCS-ADL, Estimate (difference vs control) [2, 12]: 6.92 ADCS-ADL units and 6.93 ADCS-ADL units | ADCS-ADL, Estimate (change from baseline) [2, 13]: −7.92 ADCS-ADL units | ADCS-ADL, Estimate (change from baseline) [2, 14]: −8.90 ADCS-ADL units | ADCS-ADL, Estimate (difference) [2, 15]: 7.19 ADCS-ADL units | ADCS-ADL, Estimate (change from baseline) [2, 16]: −3.86 ADCS-ADL units | ADCS-ADL, Estimate (difference) [2, 17]: 5.20 ADCS-ADL units | ADCS-ADL, Estimate (difference) [2, 18]: 4.65 ADCS-ADL units | ADCS-ADL, Estimate (difference) [2, 19]: 7.77 ADCS-ADL units | ADCS-ADL, Estimate (change from baseline) [2, 20]: −3.20 ADCS-ADL units | ADCS-ADL, Estimate (change from baseline) [2, 21]: −11.91 ADCS-ADL units | ADCS-ADL, Estimate (difference) [2, 22]: 7.70 ADCS-ADL units | ADCS-ADL, Estimate (difference) [2, 23]: 6.89 ADCS-ADL units | ADCS-ADL, Estimate (difference) [2, 24]: 5.53 ADCS-ADL units | ADCS-ADL, Estimate (change from baseline) [2, 25]: −10.93 ADCS-ADL units | ADCS-ADL decline at 12 months (mean±se) [2, 26]: −6.51±0.63 | Mean treatment benefit relative to control on ADCS-ADL [2, 27]: 156%±39%
